# Measurements reported in US20030199514A1, “Methods for improving efficacy of treatment with growth hormone secretagogues” (priority 2002, published 2003).
# Tested on: urinary nitrogen excretion
# Assay: Phase I double-blind, placebo-controlled, multiple dose evaluation of test compound in calorically restricted, obese men and women
# Format: in vivo, human
# Conditions: obese subjects on caloric-restricted diet, 3 mg po tid, 6 mg po tid or 10 mg po qam for seven days
# Experimental: Phase I Double-Blind, Placebo-Controlled, Multiple Dose Evaluation of Test Compound in Calorically Restricted, Obese Men and Women
# A total of 48 obese subjects, with a negative exercise tolerance test and without significant other medical problems, were recruited for this study and placed on a caloric-restricted diet. Subjects were randomized to either placebo, 3 mg po tid, 6 mg po tid or 10 mg po qam of the test compound, 2-amino-N-[2-(3a-(R)-benzyl-2-methyl-3-oxo-2,3,3a,4,6,7-hexahydro-pyrazolo[4,3-c]pyridin-5-yl)-1-(R)-benzyloxymethyl-2-oxo-ethyl]-isobutyramide, L-tartrate, for a total of seven days.
# The primary efficacy outcome variable of this study was urinary nitrogen excretion. Breakdown of protein (protein catabolism) may be measured by urinary nitrogen excretion. The covariates determined in this study included: 1.) gender; 2.) serum total and free testosterone; and 3.) serum total and free estradiol.
structure (smiles),measurement,setting,value
"CN1N=C2CCN(C(=O)[C@@H](COCc3ccccc3)NC(=O)C(C)(C)N)C[C@@]2(Cc2ccccc2)C1=O.O=C(O)C(O)C(O)C(=O)O [test compound, 2-amino-N-[2-(3a-(R)-benzyl-2-methyl-3-oxo-2,3,3a,4,6,7-hexahydro-pyrazolo[4,3-c]pyridin-5-yl)-1-(R)-benzyloxymethyl-2-oxo-ethyl]-isobutyramide, L-tartrate]",effect on urinary nitrogen (excretion),men,manifest in men
same,effect on urinary nitrogen (excretion),women,modest effects of treatment in women
